According to patent publication US12448483B2, “Process for preparing carboxylic acid ester-cross-linked polyglycerol esters of 3-hydroxybutyric acid” (KetoLipix Therapeutics GmbH, priority 2020, dated 2025):

How the values were obtained:
[1] = even if several grams are taken; cited from earlier work
[2] = Viscosity of samples from the structural analysis; type: physicochemical
Protocol: For structural analysis, a monodiglycerol ester of 3-hydroxybutyric acid crosslinked with succinic acid is produced according to synthesis route (A) and characterized by gel permeation chromatography (GPC) and acid number determination.
(§1) Subsequently, in the second method step (b), 100 g of the monodiglycerol ester of 3-hydroxybutyric acid are caused to react with 10 g succinic acid anhydride according to a first batch with stirring at 80° C. for 20 h and the water formed is continuously withdrawn by distillation. A sample is taken for further analysis (Sample A) and then another 7 g succinic acid anhydride are added and caused to react at 120° C. for another 6 h. The water formed is withdrawn by continuous distillation. Then another sample is taken for analysis (sample C).
as §1, with “Furthermore,” for “Subsequently,”, “(b), according to a second approach,” for “(b),”, “with the addition of 100 μL of titanium tetrabutylate (catalyst)” for “according to a first batch”, “(sample B)” for “(Sample A)”, “80°” for “120°”, “D).” for “C).”

Row | Compound | Duration of ketosis [1] | Viscosity at 25° C. [2]
1 | CC(O)CC(=O)O (centres unmarked) [3-hydroxybutyric acid] | three to four | –
2 | monodiglycerol esters of 3-hydroxybutyric acid [Educt] | – | 15,700 Pas
